pIC50: −log10 of the molar value. Calls of active or inactive are those of the source. The rule behind the calls is not given here.
Tests used:
KB [1] = assay: Antiproliferative activity against human KB cells expressing RFC/FRalpha/PCFT after 96 hrs by CellTiter-Blue assay in presence of 200 nM folic acid; format: functional, cell-based
[2] = Cytotoxicity against PCFT-deficient Chinese hamster R2(VC) cells assessed as growth inhibition after 96 hrs by CellTiter-Blue assay; format: cell-based; details: Cricetulus griseus
[3] = molecular target: T1, GAR transformylase/AICAR transformylase (Homo sapiens) (UniProt P31939+P22102); details: KB, at 1 to 1000 nM
T1 sequence (P31939 whole entry, looked up, one chain of several): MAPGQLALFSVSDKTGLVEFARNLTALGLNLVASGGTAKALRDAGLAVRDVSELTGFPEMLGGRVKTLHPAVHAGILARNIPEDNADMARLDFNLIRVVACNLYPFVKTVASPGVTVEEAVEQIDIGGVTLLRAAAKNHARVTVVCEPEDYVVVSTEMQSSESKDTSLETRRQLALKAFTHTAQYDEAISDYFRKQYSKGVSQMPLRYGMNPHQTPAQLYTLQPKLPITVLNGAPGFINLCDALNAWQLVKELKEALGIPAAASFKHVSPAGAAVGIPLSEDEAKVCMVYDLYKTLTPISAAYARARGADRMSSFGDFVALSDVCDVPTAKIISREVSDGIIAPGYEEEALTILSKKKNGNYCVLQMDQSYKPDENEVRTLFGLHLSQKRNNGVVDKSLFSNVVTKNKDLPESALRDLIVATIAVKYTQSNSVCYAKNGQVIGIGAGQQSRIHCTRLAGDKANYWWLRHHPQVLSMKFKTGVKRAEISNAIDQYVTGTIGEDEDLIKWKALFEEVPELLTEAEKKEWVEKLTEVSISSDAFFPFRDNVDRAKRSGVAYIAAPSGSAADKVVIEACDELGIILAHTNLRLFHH
Description: Inhibition of GARFTase/AICARFTase in human KB cells expressing RFC/FRalpha/PCFT assessed as cell growth inhibition at 1 to 1000 nM after 96 hrs by CellTiter-Blue assay in presence of 10 uM thymidine

[4] = molecular target: Bifunctional purine biosynthesis protein ATIC (Homo sapiens) (UniProt P31939); assay: Inhibition of AICARFTase in human KB cells expressing RFC/FRalpha/PCFT assessed as cell growth inhibition at 1 to 1000 nM after 96 hrs by CellTiter-Blue assay in presence of 320 uM AICA; format: cell-based
Bifunctional purine biosynthesis protein ATIC (Homo sapiens), sequence (P31939 whole entry, looked up): as the sequence (P31939 whole entry, looked up, one chain of several) above

R2 = assay: Cytotoxicity against RFC-deficient Chinese hamster R2 cells assessed as growth inhibition after 96 hrs by CellTiter-Blue assay; format: cell-based; details: Cricetulus griseus, R2, 96 h
KB [5] = assay: Antiproliferative activity against human KB cells expressing RFC/FRalpha/PCFT after 96 hrs by CellTiter-Blue assay; format: functional, cell-based
[6] = molecular target: T1, GAR transformylase/AICAR transformylase (Homo sapiens); details: KB, at 1 to 1000 nM; remark: listed apart in the source
Description: Inhibition of GARFTase/AICARFTase in human KB cells expressing RFC/FRalpha/PCFT assessed as cell growth inhibition at 1 to 1000 nM after 96 hrs by CellTiter-Blue assay in presence of 60 uM adenosine

[7] = molecular target: T2, Trifunctional purine biosynthetic protein adenosine-3 (Homo sapiens, UniProt P22102); assay: Inhibition of GARFTase in human KB cells expressing RFC/FRalpha/PCFT assessed as incorporation of [U-14C]-glycine into [14C]-formyl glycinamide ribonucleotide incubated for 1 hr followed by [U-14C]-glycine addition measured after 16 hrs; format: cell-based
T2 sequence (P22102 whole entry): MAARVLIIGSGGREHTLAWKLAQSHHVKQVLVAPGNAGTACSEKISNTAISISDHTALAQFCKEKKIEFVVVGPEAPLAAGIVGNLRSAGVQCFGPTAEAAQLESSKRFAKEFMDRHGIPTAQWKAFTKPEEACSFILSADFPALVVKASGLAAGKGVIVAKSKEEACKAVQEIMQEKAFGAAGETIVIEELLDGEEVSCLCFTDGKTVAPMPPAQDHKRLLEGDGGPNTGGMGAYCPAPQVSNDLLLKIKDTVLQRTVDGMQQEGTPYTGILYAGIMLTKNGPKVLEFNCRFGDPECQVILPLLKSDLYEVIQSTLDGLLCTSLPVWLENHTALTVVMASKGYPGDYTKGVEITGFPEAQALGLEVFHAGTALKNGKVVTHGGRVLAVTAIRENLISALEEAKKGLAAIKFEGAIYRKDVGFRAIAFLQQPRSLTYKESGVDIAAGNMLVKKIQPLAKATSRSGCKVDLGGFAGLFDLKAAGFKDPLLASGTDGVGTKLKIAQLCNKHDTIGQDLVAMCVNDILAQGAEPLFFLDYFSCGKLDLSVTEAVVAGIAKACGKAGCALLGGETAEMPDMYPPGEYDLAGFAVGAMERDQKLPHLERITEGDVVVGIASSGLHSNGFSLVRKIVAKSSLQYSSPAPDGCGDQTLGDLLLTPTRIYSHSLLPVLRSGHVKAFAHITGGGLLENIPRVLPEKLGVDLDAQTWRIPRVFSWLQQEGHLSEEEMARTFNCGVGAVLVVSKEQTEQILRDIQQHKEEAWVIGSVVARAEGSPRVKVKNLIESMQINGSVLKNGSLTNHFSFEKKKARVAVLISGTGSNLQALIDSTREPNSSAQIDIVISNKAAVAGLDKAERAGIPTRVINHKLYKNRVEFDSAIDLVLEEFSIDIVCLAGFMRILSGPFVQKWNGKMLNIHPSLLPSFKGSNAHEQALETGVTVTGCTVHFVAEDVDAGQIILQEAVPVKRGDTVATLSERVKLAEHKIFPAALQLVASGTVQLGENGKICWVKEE

Compound	inhibition [3]	inhibition [4]	pIC50 (KB [5])	inhibition [6]	Activity (KB [1])	pIC50 [2]	pIC50 (R2)	pIC50 [7]
Nc1nc2[nH]cc(Cc3ccc(C(=O)N[C@@H](CCC(=O)O)C(=O)O)s3)c2c(=O)[nH]1	–	–	< 6.00	–	–	< 6.00	< 6.00	–
Nc1nc2[nH]cc(CCCc3ccc(C(=O)N[C@@H](CCC(=O)O)C(=O)O)s3)c2c(=O)[nH]1	Active	Active	6.68	inactive	–	< 6.00	< 6.00	–
Nc1nc2[nH]cc(CCc3ccc(C(=O)N[C@@H](CCC(=O)O)C(=O)O)s3)c2c(=O)[nH]1	–	–	6.06	–	–	< 6.00	< 6.00	–
Nc1nc2[nH]c(CCCCc3ccc(C(=O)N[C@@H](CCC(=O)O)C(=O)O)s3)cc2c(=O)[nH]1	–	inactive	–	–	–	< 6.00	< 6.00	8.50

The next lines start with results.

inhibition [3]	inhibition [4]	pIC50 (KB [5])	inhibition [6]	Compound	Activity (KB [1])	pIC50 [2]	pIC50 (R2)	pIC50 [7]
Active	Active	7.18	inactive	Nc1nc2[nH]cc(CCCCc3ccc(C(=O)N[C@@H](CCC(=O)O)C(=O)O)s3)c2c(=O)[nH]1	inactive	< 6.00	< 6.00	7.21
Active	inactive	7.38	inactive	Nc1nc2[nH]cc(CCCCCc3ccc(C(=O)N[C@@H](CCC(=O)O)C(=O)O)s3)c2c(=O)[nH]1	inactive	< 6.00	< 6.00	–
–	–	< 6.00	–	Nc1nc2[nH]cc(CCCCCCc3ccc(C(=O)N[C@@H](CCC(=O)O)C(=O)O)s3)c2c(=O)[nH]1	–	< 6.00	< 6.00	–

Reference: ChEMBL document CHEMBL3407468, “Novel 5-substituted pyrrolo[2,3-d]pyrimidines as dual inhibitors of glycinamide ribonucleotide formyltransferase and 5-aminoimidazole-4-carboxamide ribonucleotide formyltransferase and as potential antitumor agents” (J Med Chem, 2015)
